Compared with `O=C1CCCC2=C1C(c1ccc(F)c(Cl)c1)C1=C(CCS1)N2` (configuration not stated), `COc1ccc(C2CC(=O)N(C(=O)c3cncc(Br)c3)N2C)cc1OC1CCCC1` (configuration not stated) is lower in melting point: over 250 °C for the first, 139 to 141 °C for the second.

Compared with `COc1nsnc(Cl)c1=O`, `COc1ccc(CO)nc1I` is lower in melting point: 159 to 161 °C for the first, 106 to 108 °C for the second.

First: CCC(=CC=C(C#N)C#N)NCCO
Second: O=C(NCCO[N+](=O)[O-])c1ccoc1
The melting point of the first is higher: 88 to 90 °C for the first, 80 to 82 °C for the second.

Compared with `CCN(CC)CC1(C)Cc2c(C)c(N3CCN(c4ccc(OC)cc4)CC3)c(C)c(C)c2O1` (configuration not stated), `CC1(C)Cc2c(c(N3CCCC3)nc3sc4c(NCc5ccc(S(C)(=O)=O)cc5)ncnc4c23)CO1` is higher in melting point: 103 to 106 °C for the first, 324 to 326 °C for the second.

Compared with `COC(=O)C(=Cc1ccccc1Cl)c1ccccc1`, `COc1cc(C)ccc1S(=O)(=O)OC(Cl)C(=O)c1ccccc1` (configuration not stated) is higher in melting point: 67 to 69 °C for the first, 110 to 112 °C for the second.

First: CCCCOc1cc(C(=O)O)cc(NC(C)=O)c1C(=O)c1ccccc1
Second: Cc1cccc(C)c1NCCCC(=O)N(C(=O)c1ccc(Cl)cc1)[C@@H](Cc1ccccc1)C(=O)O
The melting point of the first is higher: 177 to 178 °C for the first, 153 to 155 °C for the second.

First: Cc1nc2ccccc2c(=O)n1-c1ccc(Cl)cc1
Second: O=[N+]([O-])c1ccc(-c2ncnn2-c2ccc(F)cc2)cc1
The melting point of the first is higher: 141 to 142 °C for the first, 132 to 134 °C for the second.

First: O=C(CNC(=O)C1CCCCC1)c1ccco1
Second: COc1ccc(C(=O)C2(C)CCC(C(=O)O)C2(C)C)c(OC)c1 (configuration not stated)
The melting point of the first is lower: 110 to 111 °C for the first, 134 °C for the second.

Compared with `CCOC(=O)[C@H](Cc1ccc(-c2c(OC)cc(CN3CCSCC3)cc2OC)cc1)NC(=O)c1c(Cl)cccc1Cl`, `COC(=O)c1ccc2oc(CCCCc3cc4cc(C(=O)OC)ccc4o3)cc2c1` is higher in melting point: 86 to 89 °C for the first, 130 to 131 °C for the second.

`NC(Cc1cccc2c(Cl)cccc12)=NO` and `COC(=O)c1ccc2c(c1)Sc1ccccc1CC2Br` (configuration not stated) cannot be ordered by melting point: 121 to 125 °C for the first, 116 to 123 °C for the second.

First: O=C(O)c1ccc(-c2nnc3n2-c2cccnc2Nc2ccccc2-3)cc1
Second: CCOC(=O)c1ccc(C(NCC(=O)Nc2c(C(C)C)cccc2C(C)C)c2ccccc2)cc1 (configuration not stated)
The melting point of the first is higher: over 300 °C for the first, 139 to 140 °C for the second.

Compared with `COCOc1ccc2cc(C3CCN(C)CC3)[nH]c(=O)c2c1`, `COc1cc2c(cc1OC)CC(N)CC2` (configuration not stated) is lower in melting point: 200 to 202 °C for the first, 83 to 86 °C for the second.

Compared with `O=C(NCCO)c1cc(-c2ccnc(Nc3cccc(OC(F)(F)C(F)F)c3)n2)ccn1`, `CS(=O)(=O)c1ccc(-c2cnn(CC(F)(F)F)c(=O)c2Sc2nc[nH]n2)cc1` is higher in melting point: 159 °C for the first, 197 to 200 °C for the second.

Compared with `CC(=N)NS(=O)(=O)C=Cc1ccc(Cl)cc1`, `COc1cccc(C=CCC(=O)O)c1OC` is lower in melting point: 161 to 163 °C for the first, 84 to 86 °C for the second.

First: CN(C)C=Nc1ccncc1O
Second: CC1=N/C(=C\c2c[nH]c3ncccc23)C(=O)N1
The melting point of the first is lower: 121 to 123 °C for the first, 277 to 281 °C for the second.

First: O=Cc1c(-c2ccccc2Br)ccc2c1OCO2
Second: CC(c1cc2ccccc2s1)N(O)C=O (configuration not stated)
The melting point of the first is lower: 89 to 91 °C for the first, 115 to 116 °C for the second.

Compared with `CC(C)CCNCC(O)C(CC(C)C)NC(=O)C(Cc1c[nH]cn1)NC(=O)C(CC(=O)NCCc1ccccc1)Cc1cccc2ccccc12` (mixture of isomers), `CCn1nc(OCC(=O)C(C)(C)C)c(-c2ccc(F)cc2)c1-c1ccc(S(N)(=O)=O)cc1` is higher in melting point: 92 to 97 °C for the first, 196 to 198 °C for the second.

First: O=C(O)c1ccccc1Oc1ccc(Br)cc1NS(=O)(=O)c1cc(C(F)(F)F)cc(C(F)(F)F)c1
Second: CCS(=O)(=O)Nc1cccc(C)c1C(N)c1cccn2c(C)c(C)nc12 (configuration not stated)
The melting point of the first is lower: 158 to 159 °C for the first, 240 to 242 °C for the second.

First: CC1=N/C(=C\c2c[nH]c3cc(C)ccc23)C(=O)O1
Second: Nc1nc2c(nc(Br)n2Cc2cccnc2)c(=O)[nH]1
The melting point of the first is lower: 194 to 196 °C for the first, over 300 °C for the second.

First: CC(C)(C)OC(=O)N1CCc2c(Br)cccc2C1
Second: O=C(Nc1cccc(Cl)c1)N1CCNC1=N[N+](=O)[O-]
The melting point of the first is lower: 75.6 to 80.4 °C for the first, 214 to 216 °C for the second.

First: CNC(=O)n1ccc(O)cc1=O
Second: C=C(C)COc1cc(C)c(NC=O)c(C)c1
The melting point of the first is higher: 268 °C for the first, 128 to 129 °C for the second.
